Experimental data taken from publication PMC7893776, “Selecting an anti-malarial clinical candidate from two potent dihydroisoquinolones” (Malaria Journal, 2021).
Where two headings read alike, the source gives them in different places. Each block holds one compound with its values, some of them ahead of it.

How the values were obtained:
CYP2C19 = biological target: T1, CYP2C19 (Homo sapiens, UniProt P33261); assay: CYP450 inhibition, CYP2C19; assay type: in vitro ADME; settings: for inhibition of CYP2C19: 10 µM, probe substrate S-mephenytoin, replicate measurements
T1 construct: purchased Cypex Ltd (Bactosomes)
T1 sequence (P33261 whole entry): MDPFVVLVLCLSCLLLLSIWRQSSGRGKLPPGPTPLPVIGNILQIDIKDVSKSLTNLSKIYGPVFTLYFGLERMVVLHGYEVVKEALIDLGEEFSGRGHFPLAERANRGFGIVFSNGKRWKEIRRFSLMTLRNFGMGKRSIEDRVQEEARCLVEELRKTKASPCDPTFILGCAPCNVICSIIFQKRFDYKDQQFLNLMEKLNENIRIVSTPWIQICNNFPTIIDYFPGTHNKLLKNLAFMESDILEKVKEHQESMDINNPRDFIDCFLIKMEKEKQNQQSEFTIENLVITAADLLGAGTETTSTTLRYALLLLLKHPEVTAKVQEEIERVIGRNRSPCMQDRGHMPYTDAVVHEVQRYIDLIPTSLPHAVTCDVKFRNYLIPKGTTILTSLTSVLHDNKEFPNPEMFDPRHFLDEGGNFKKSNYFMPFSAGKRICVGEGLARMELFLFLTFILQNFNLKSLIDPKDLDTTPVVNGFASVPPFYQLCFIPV

[1] = Microsomal stability, dog; assay type: in vitro ADME; settings: for CLint in vivo: scaled up using PBSF
Experimental: (§1) The metabolic stability assay was performed by incubating compounds individually (0.8, 4, or 20 µM) with mouse, rat, dog and human liver microsomes (Fisher, 0.5 mg/mL protein concentration) at 37 °C. The metabolic reaction was initiated by the addition of a NADPH-regenerating system and quenched at various time points by the addition of acetonitrile according to a published method.
(§2) The remaining concentration of each compound was measured as a ratio of peak area to the internal standard. The log peak area ratio was plotted vs. time (h), and the slope was determined to calculate the elimination rate constant [k = (− 2.303) * slope]. If deviation from first order kinetics was evident, only the initial linear portion of the plot was used to determine the rate constate, k. The half-life (h) was calculated as t1/2 = 0.693/k. Intrinsic clearance in vitro was calculated as CLintin vitro = (1000)*(0.693/t1/2*60)/0.5, where microsomal concentration in the reaction solution was 0.5 mg/mL; 1000 and 60 are scaling factors for volume (µL) and time (min), respectively. The intrinsic in vitro clearance was scaled to the intrinsic in vivo clearance using physiology based scaling factor (PBSF): CLint in vivo= CLint in vitro *PBSF: (microsome protein/gram liver) * (gram liver/kg b.w.), with PBSF: 47 (mouse), 47(rat), 58 (dog), 32 (human); and liver weight proportions: 54.9 (mouse), 36.6 (rat), 32.9 (dog) 25.7 (human).

[2] = Microsomal stability, human; assay type: in vitro ADME; settings: for CLint in vivo: scaled up using PBSF
Experimental: as §1, §2

[3] = LogD octanol/pH 7.4 buffer shake flask; assay type: physicochemical
Experimental: Octanol/pH 7.4 buffer partitioning experiments were conducted using a shake flask method, and pKa was assessed by potentiometric titration. Both methods have been described previously.

[4] = Rat pharmacokinetics, single PO or IV dose; assay type: in vivo, male Sprague Dawley rats
Description: Studies were undertaken to determine the plasma pharmacokinetics of SJ733 and SJ311. These studies included: (i) single oral gavage (PO) or intravenous (IV) dose administration to female C57BL/6 mice; (ii) single PO or IV dose administration to male Sprague Dawley (SD) rats; (iii) single PO or IV dose administration to male beagle dogs; (iv) toxicokinetic (TK) study following single PO administration to male SD rats. The PO and IV formulation used for mouse studies at SJCRH was 1% hydroxypropyl-beta-cyclodextrin (w/v), 10% ethanol (v/v), 10% propylene glycol (v/v), 40% PEG-400 (v/v) and 39% PBS (pH 7.4) isotonic (v/v). Compounds were dosed orally as suspensions, and intravenously as filtered solutions. Compound concentrations were confirmed post filtration using UV spectroscopy. The IV formulation used for rat studies (Monash University) was the same as that used for mice. For PO dosing to rats (Monash University) at 2 mg/kg, a suspension formulation was used containing 0.5% (w/v) hydroxypropyl methylcellulose, 0.5% (v/v) benzyl alcohol and 0.4% (v/v) Tween 80. The formulation used for rat studies at SRI (PO, high dose) was the same as that used in mouse PK studies. The formulation for the high dose TK study at SRI was 0.5% methylcellulose in sterile water. The formulation used for dog studies was the same as that used in mouse PK studies. The PO and IV PK of SJ733 and SJ311 were studied in overnight-fasted male Sprague Dawley rats. Rats had access to water ad libitum throughout the pre- and post-dose sampling period, and access to food was re-instated 4 h post-dose. […] Once collected, blood samples were centrifuged, supernatant plasma was removed and stored frozen (− 20 °C) until LC–MS analysis within 1 week of collection. The high dose levels of both compounds (50, 100, 200 mg/kg, PO, (+)-SJ733/311) were also independently tested by SRI, with a single oral gavage administration. Blood (through jugular vein) and urine were collected at time points up to 72 and 24 h post dose, respectively. Supernatant plasma was removed following centrifugation and stored frozen (− 70 °C) until LC–MS analysis. For toxicology studies, male Sprague Dawley rats were administered 50, 100, 250, 500, or 750 mg/kg of (r)-SJ733 or (r)-SJ311 by oral gavage (one dose per animal). Body weights were recorded on Day 1 prior to dose administration and on Day 4. Blood samples (400 µL) were collected at 4 and 24 h post drug administration from the retro-orbital sinus. Potassium EDTA treated plasma was collected and kept frozen at -70 °C for bioanalytical analysis. For studies at Monash University, rat plasma and urine samples were extracted utilizing protein precipitation with a twofold volume ratio of acetonitrile. SJ733, SJ311, and diazepam (IS) were detected using LC–MS/MS instrumentation. Aliquots (3 µL) were injected onto a Waters Acquity UPLC equipped with a Waters Micromass Xevo TQ MS/MS and separated using a Supelco Ascentis Express RP Amide column (50 × 2.1 mm, 2.7 µm) with a methanol–water gradient containing 0.05% formic acid. Calibration standards were prepared by spiking blank matrix (plasma or urine) and the calibration range was from 1 to 10,000 ng/mL for plasma or 2.5 to 5000 ng/mL for urine. Plasma and urine samples from the high dose rat PK studies were analyzed by SRI. In both matrices, the sample volume was 50 μL, and assay entailed the addition of 50 μL of internal standard solution to the standards and study samples. The compounds were used as reciprocal standards for one another (427 nM SJ733 in Milli-Q-Water for SJ571311 and 437 nM SJ311 in Milli-Q-Water for SJ733). These mixtures were then extracted with 1000 μL of ethyl acetate by vortexing for 10 min on a multi-tube vortex mixer at maximum speed followed by separation of the organic and aqueous phases by centrifugation (18,000×g, 5 min). […]

[5] = human microsomes, 20, 4, 0.8 µM

SMILES: N#Cc1cc(NC(=O)C2c3ccccc3C(=O)N(CC(F)(F)F)C2c2cn[nH]c2)ccc1F (racemic) [(r)-SJ311]
inhibition of CYP2C19 (CYP2C19): 12%
CLint in vitro ([1]; dog microsomes, 20, 4, 0.8 µM): <7 µl/min/mg protein
CLint in vivo ([1]; dog microsomes, 20, 4, 0.8 µM): <8.3 mL/min/kg
CLint in vitro [2, 5]: <7 µl/min/mg protein
CLint in vivo [2, 5]: <5.2 mL/min/kg
LogD (7.4) Shake flask [3]: 2.34

SMILES: N#Cc1cc(NC(=O)C2c3ccccc3C(=O)N(CC(F)(F)F)C2c2cccnc2)ccc1F (racemic) [(r)-SJ733]
inhibition of CYP2C19 (CYP2C19): 5, 5%
Tmax ([4]; in vivo, po, 19.8 mg/kg): 1.0 h
CLint in vitro ([1]; dog microsomes, 0.8 µM, independent replicate to Table 4): <7 µl/min/mg protein
CLint in vivo ([1]; dog microsomes, 0.8 µM): <8.3 mL/min/kg
CLint in vitro ([1]; dog microsomes, 4 µM, independent replicate to Table 4): <7 µl/min/mg protein
CLint in vivo ([1]; dog microsomes, 4 µM): <8.3 mL/min/kg
CLint in vitro ([1]; dog microsomes, 20 µM, independent replicate to Table 4): <7 µl/min/mg protein
CLint in vivo ([1]; dog microsomes, 20 µM): <8.3 mL/min/kg
CLint in vitro ([2]; human microsomes, 0.8 µM, independent replicate to Table 4): 12.7 ± 0.3 µl/min/mg protein
CLint in vivo ([2]; human microsomes, 0.8 µM): 11.5 ± 0.3 mL/min/kg
CLint in vitro ([2]; human microsomes, 4 µM, independent replicate to Table 4): 11.5 ± 0.3 µl/min/mg protein
CLint in vivo ([2]; human microsomes, 4 µM): 10.3 ± 1.2 mL/min/kg
CLint in vitro ([2]; human microsomes, 20 µM, independent replicate to Table 4): <7 µl/min/mg protein
CLint in vivo ([2]; human microsomes, 20 µM): <5.2 mL/min/kg

CYP2C19 inhibition, in words (CYP2C19): weakly inhibited
fraction of the IV dose recovered in urine ([4]; IV, 24-h sampling period): ~1.5%
Half-life ([4]; male, Sprague Dawley, plasma, IV, isomers and racemate at similar doses, read-out: IV half-lives): 5 to 18 h
AUC(0-inf) ([4]; male, Sprague Dawley, plasma, PO, all dose levels 50–200 mg/kg, read-out: mean AUCinf): 96.3 to 330 µM·h
Half-life ([4]; male, Sprague Dawley, plasma, PO, read-out: terminal half-life, mean t1/2): 7.7 to 10.3 h
bioavailability ([4]; male, Sprague Dawley, plasma, po, summary over the oral doses studied, read-out: Rat F (oral bioavailability)): 60 to 100%
clearance ([4]; male, Sprague Dawley, plasma, read-out: measured in vivo clearance (converted)): ~11.7 mL/min/kg
Rat F (oral bioavailability) ([4]; summary over the oral doses studied): 63-122%
SMILES: N#Cc1cc(NC(=O)[C@H]2c3ccccc3C(=O)N(CC(F)(F)F)[C@@H]2c2cccnc2)ccc1F (racemic) [SJ733]
